A short description of series [1]: Stability in K-R solution. It is filed as physicochemical. Conditions: 24 h, room temperature; for Stability, RSD (%): K-R solution, concentrations at 0-24 h compared. As to the method: GP and GPA were stable in K-R solution at room temperature for 24 h. The concentrations at 0, 1, 2, 3, 5, 6, 8, 10 and 24 h were determined and compared.
All the components were dissolved in the K-R solution to imitate the physiological conditions of the intestinal tract. K-R nutrient solution included: NaCl 7.8 g, KCl 0.35 g, CaCl2 0.37 g, NaHCO3 1.37 g, NaH2PO4 0.02 g, MgCl2 0.02 g, glucose 2.22 g. They were dissolved in distilled water to 1000 mL.

Series [2] relates to β-D-glucosidase of a human intestinal anaerobe, Eubacterium sp.A-44. Conditions: cited from earlier work.
A short description of series [3]: Stability in blank intestinal perfusion solution. Conditions: 3 h, 50 mg/L; for Stability in blank intestinal perfusion solution: 37 °C; for Stability, RSD (%): Blank intestinal perfusion solution, 37 °C water bath, concentrations at 0, 0.25, 0.5, 1, 2 and 3 h compared. Format: physicochemical. The procedure:
A total of 50 mg/L GP and GPA perfusion solution (dissolved in blank intestinal perfusion solution) was incubated in a water bath at 37 °C for 3 h. The concentrations at 0, 0.25, 0.5, 1, 2 and 3 h were determined and compared.
The blank intestinal perfusion solution was prepared by a process consistent with the in situ intestinal perfusion experiment (as follows) except for the vacancy of GP or other components in the K-R solution.

Series [4] can be described thus: In situ intestinal perfusion of rat duodenum (UPLC of perfusate). It is filed as in vivo. Conditions: for Cumulative Absorption Rate (%) 1 h (mean ± SD) / Cumulative Absorption Rate (%) 3 h (mean ± SD): rat duodenum, n = 6. The procedure: All animal experimental procedures were in compliance with the National Institutes of Health Guide for Care and Use of Laboratory Animals. The in situ intestinal perfusion experiment was performed by using male Sprague-Dawley rats (240 ± 20 g) which obtained from Beijing Vital River Laboratory Animal Technology Co., Ltd. (SCXK 2012-0001, Beijing, China). Animals were fasted overnight (12 h) with free access to water before being allocated to different experimental groups at random. After the abdominal cavity was opened, an intestinal loop (length, 10 cm) was made by cannulation with silicone tube (i.d., 3 mm) at the duodenum which was selected 1 cm away from pylorus. The intestinal contents were removed by infusion of normal saline solution. The 25 mL perfusion solution was precisely measured and stored in the measuring cylinder. At the start of the experiment, the perfusion solutions perfused through the intestinal segment at a flow rate of 5 mL/min for 10 min by using a peristaltic pump (Petro Gas Ausrüstungen, Berlin, Germany). On reaching a steady state, changed the flow rate to 2.5 mL/min, and the intestinal perfusion samples (150 µL × 3) were collected at 30 min intervals for the duration of 3 h (0, 0.5, 1, 1.5, 2, 2.5, 3 h) with a pipette and put into shell tube. After each collection, the volumes (V1) of the perfusion solutions were recorded precisely and 450 µL blank K-R solution was added into the perfusion solution to keep the volume of the perfusion solution constant. After 3 h, the intestinal perfusion solution in peristaltic pump and the duodenum was exhausted, the volume of which was recorded as V2. All the samples were assayed by UPLC after preparation. Finally, the curves of time and the residual quantities (lnx) of GP and GPA in intestinal solution during the absorption in the duodenum for 3 h were obtained (Figure 2).The residual quantities of GP and GPA in the perfusion solution were calculated using the following equation: Xn = CnVn + 0.45 [drawing 1] , Xn is the residual quantities of GP or GPA in intestinal solution, Ci and Cn is the concentration of the GP or GPA, Vn is the volume of the intestinal perfusion solution (Vn = V1 + V2). Cumulative absorption rates were compared for 1 h and 3 h between the single and compatibility groups. The equation was as follows: 1 h/3 h cumulative absorption rate [drawing 2] .
Samples were prepared using a protein precipitation method at a volume ratio of 1:1 (v/v). The perfusion sample (150 µL) was mixed with CH3OH (150 µL), and then vortexed for 1 min. After 10 min for the precipitation, pure water (160 µL) was added to 40 µL of the above mixture. Then the sample was vortexed for 1 min and centr ifuged at 14,000 rpm for 10 min. The supernatant was directly used for UPLC analysis.
After sample preparation, 3 µL of the supernatant was injected into the UPLC system, and separated on a Waters BEH C18 column (2.1 × 50 mm, 1.7 µm). The column temperature was set at 25 °C. The mobile phase was consisted of water with 0.2% acetic acid (A) and acetonitrile (B) at a flow rate of 0.35 mL/min. The mobile phase operated in the following gradient for GP: 0–3 min: 15%–50% B, 3–3.5 min: 50%–90% B, 3.5–4 min: 90%–50% B, 4–5 min: 50%–15% B; GPA: 0–1 min: 5%–10% B, 1–2 min: 10%–20% B, 2–3 min: 20%–50% B, 3–4 min: 50%–10% B, 4–5 min: 10%–5% B. The detection wavelength was 254 nm.

A short description of series [5]: Effect of physical adsorption of the peristaltic pump. Conditions: for Physical Adsorption RSD (%): original vs 3 h concentration, 37 °C; for Concentration (mg/L) 3 h: perfusion solution after 3 h in water bath at 37 °C, compared with original concentration. Format: physicochemical. As to the method:
The perfusion solutions with known drug concentrations were incubated for 3 h in a water bath at 37 °C. The concentrations of GP and GPA in the resulting solution were determined and compared with the original concentrations.

The conditions of series [6]: cited from earlier work.
The next series relates to NO production. Also on record: method as in PMID 22181069. Conditions: protection from renal injury; cited from earlier work.
The subject of series [7] is β-D-glucosidase in rat liver homogenate. Also on record: method as in PMID 7735197. Conditions: cited from earlier work.
The mark [8] stands for this setting: Compatibility group (mixed with FPE).
[9] abbreviates: Single group, 80 mg/L perfusion solution.

Read-outs that look alike come from different tables or passages of the source.

For the compound `O=C(O)C1=CO[C@@H](O[C@@H]2O[C@H](CO)[C@@H](O)[C@H](O)[C@H]2O)[C@@H]2C(CO)=CC[C@H]12` [GPA, geniposidic acid], in series [1], the “Stability, RSD (%)” value worked out at 2.01% and the “Stability in K-R solution” value is “stable”. Moreover, the “Hydrolysis by β-D-glucosidase” value in series [2] is “can hydolyse”. Moreover, in series [3], the “Stability in blank intestinal perfusion solution” value was “stable” and the “Stability, RSD (%)” value came out at 0.45%. For the same compound, in series [4] (setting [8]), the “Cumulative Absorption Rate (%) 1 h (mean ± SD)” value came to 0.075 ± 0.015% and the “Cumulative Absorption Rate (%) 3 h (mean ± SD)” value came to 0.105 ± 0.028%. For the same compound, the “Intestinal absorption at 216 mg/L” value in series [4] (GPA 216 mg/L in intestinal perfusion solution) is listed as “poor absorption”. For the same compound, in series [4] (setting [9]), the “Cumulative Absorption Rate (%) 1 h (mean ± SD)” value came to 0.063 ± 0.040% and the “Cumulative Absorption Rate (%) 3 h (mean ± SD)” value is reported as 0.136 ± 0.046%. For the same compound, in series [5], the “Physical Adsorption RSD (%)” value is listed as 1.32% and the “Concentration (mg/L) 3 h” value was 114.68 mg/L.

With `COC(=O)C1=CO[C@@H](O[C@@H]2O[C@H](CO)[C@@H](O)[C@H](O)[C@H]2O)[C@@H]2C(CO)=CC[C@H]12` [GP, Geniposide], the “Absorption in the duodenum by concentration” value in series [6] (GP at 78 mg/L compared with other concentrations) is recorded as “best absorption”. The “Absorption in the duodenum versus other parts of the intestinal tract” value in series [6] is on record as “better than other parts of the intestinal tract”. For the same compound, in series [1], the “Stability, RSD (%)” value is listed as 1.32% and the “Stability in K-R solution” value is “stable”. In addition, the “Effect on NO production” value in the series with NO production is listed as “inhibited NO production”. In series [2] (human intestinal anaerobe Eubacterium sp.A-44), the “Hydrolysis by β-D-glucosidase” value is “can be hydrolyzed”. The “Hydrolysis by β-D-glucosidase” value in series [7] is listed as “cannot be hydrolyzed”. Moreover, in series [3], the “Stability in blank intestinal perfusion solution” value is recorded as “stable” and the “Stability, RSD (%)” value stood at 3.27%. For the same compound, in series [4] (setting [8]), the “Cumulative Absorption Rate (%) 1 h (mean ± SD)” value is 0.139 ± 0.104% and the “Cumulative Absorption Rate (%) 3 h (mean ± SD)” value came out at 0.120 ± 0.063%. In series [4] (setting [9]), the “Cumulative Absorption Rate (%) 1 h (mean ± SD)” value was determined as 0.059 ± 0.018 % and the “Cumulative Absorption Rate (%) 3 h (mean ± SD)” value is 0.081 ± 0.017 %. Moreover, in series [5], the “Physical Adsorption RSD (%)” value is given as 0.57% and the “Concentration (mg/L) 3 h” value is reported as 92.34 mg/L.

The values are drawn from article PMC6271122, “Effects of Fructus Psoraleae Extract on the Intestinal Absorption Kinetics of Geniposide and Geniposidic Acid in Rat” (Molecules, 2014).
